According to patent publication US8168430B2, “Method for preparation of hepatocyte using ES cell” (Nihon University, priority 2006, dated 2012):

Tests used:
TT2 ES cells [1] = assay: FACS analysis of albumin producing cells; format: cell-based, mouse; conditions: cultured 9 days; FACS with anti-albumin antibodies; control 22%
Protocol: The medium of the cultured cells was removed and washing was performed using PBS (−). After the cells were detached from the surface of the dish using 0.25% trypsin solution, 5 mL of a collagenase solution as described below was added to the cells and the cells were incubated at 37° C. for 30 minutes in order to digest the intercellular adhesion.
After digestion, cells were collected by centrifugation (1000 rpm, 4° C., 5 minutes) and fixed using 1 mL of ice-chilled 100% methanol. After fixing the cells, centrifugation (1500 rpm, 4° C., 5 minutes) was performed in order to remove the methanol. […] Then FITC-bonded sheep anti-rabbit IgG (MP Biomedicals Inc., Catalog# 55647, Lot# 02756) was added to the cells and the cells were allowed to stand for one hour while shielding against light. After standing for one hour, the cells were loaded by a FACS Canto™ (Becton Dickinson, Franklin Lakes, N.J.) wherein a FSC voltage was set to 80, a FITC voltage was set to 300 and a threshold was set to 1000. Thereafter BD DiVa Software was used for analysis. In FIGS. 12 and 13, the intensity of FITC is shown on the horizontal axis and FSC is shown on the vertical axis.
Then uPA, DFP-treated uPA or tPA was added to differentiation-inducing medium and cultured for 9 days. Cells were isolated using trypsin treatment and collagenase treatment, and FACS analysis was performed using anti-albumin antibodies.

TT2 ES cells [2] = assay: Expression of differentiation markers (RT-PCR, western blot) in ES cells induced to differentiate from embryoid bodies; conditions: for expression of the differentiation markers for hepatocyte (albumin, Cyp7a1 etc.): cultured 18 days in supplemented differentiation-inducing medium, RT-PCR and western blot

| Compound | albumin producing cells, share of the total number of cells (TT2 ES cells [1]) | expression of the differentiation markers for hepatocyte (albumin, Cyp7a1 etc.) (TT2 ES cells [2]) | induction of differentiation into hepatocytes (TT2 ES cells [2]; differentiation-inducing medium supplemented with the factor) |
| --- | --- | --- | --- |
| tPA: tissue-type PA which has the same substrate specificity as uPA | 27.2% | almost no change | did not induce differentiation into hepatocytes |
| N=C(N)c1ccc(N)cc1 [p-aminobenzamidine, reference compound] | – | suppressed | – |
